Assay results: the NIST ThermoML archive (doi:10.1021/acs.jced.8b00975)
Numbers after ± are expanded uncertainties.

Test: xn = mol fraction of the nth substance listed
Settings: Liquid, Vibrating tube method

C=C(C)C(=O)OCCN(C)C [2-(dimethylamino)ethyl methylpropenoate] + CCO
mass density [kg/m3]
Settings	100 kPa	5000 kPa	10000 kPa	15000 kPa	20000 kPa	25000 kPa	30000 kPa	35000 kPa
293.15 K, x1 = 0.0298	802.7 ± 0.51	807.13 ± 0.52	811.22 ± 0.53	815.04 ± 0.54	818.66 ± 0.55	822.14 ± 0.56	825.55 ± 0.57	828.95 ± 0.58
293.15 K, x1 = 0.0598	814.88 ± 0.51	819.12 ± 0.52	823.12 ± 0.52	826.9 ± 0.53	830.51 ± 0.54	834 ± 0.55	837.41 ± 0.56	840.78 ± 0.58
293.15 K, x1 = 0.0999	829.26 ± 0.51	833.46 ± 0.52	837.4 ± 0.52	841.12 ± 0.53	844.67 ± 0.54	848.1 ± 0.55	851.44 ± 0.56	854.75 ± 0.57
293.15 K, x1 = 0.1997	856.9 ± 0.51	861.05 ± 0.52	864.9 ± 0.52	868.5 ± 0.53	871.93 ± 0.53	875.24 ± 0.54	878.49 ± 0.54	881.75 ± 0.55
293.15 K, x1 = 0.3001	876.95 ± 0.51	880.93 ± 0.52	884.66 ± 0.52	888.19 ± 0.52	891.58 ± 0.53	894.86 ± 0.53	898.09 ± 0.54	901.32 ± 0.54
293.15 K, x1 = 0.3966	891.39 ± 0.51	895.28 ± 0.52	898.93 ± 0.52	902.38 ± 0.52	905.7 ± 0.53	908.93 ± 0.53	912.15 ± 0.54	915.39 ± 0.54
293.15 K, x1 = 0.4472	897.49 ± 0.51	901.33 ± 0.52	904.98 ± 0.52	908.47 ± 0.52	911.83 ± 0.53	915.1 ± 0.53	918.3 ± 0.53	921.47 ± 0.54
293.15 K, x1 = 0.4982	902.96 ± 0.51	906.87 ± 0.52	910.51 ± 0.52	913.95 ± 0.52	917.24 ± 0.53	920.43 ± 0.53	923.58 ± 0.53	926.74 ± 0.54
293.15 K, x1 = 0.55	907.68 ± 0.51	911.66 ± 0.52	915.32 ± 0.52	918.74 ± 0.53	921.98 ± 0.53	925.14 ± 0.53	928.28 ± 0.53	931.5 ± 0.54
293.15 K, x1 = 0.5964	911.67 ± 0.52	915.5 ± 0.52	919.12 ± 0.52	922.56 ± 0.53	925.87 ± 0.53	929.09 ± 0.53	932.25 ± 0.54	935.39 ± 0.54
293.15 K, x1 = 0.6982	918.77 ± 0.52	922.55 ± 0.52	926.15 ± 0.53	929.6 ± 0.53	932.93 ± 0.53	936.16 ± 0.54	939.33 ± 0.54	942.44 ± 0.54
293.15 K, x1 = 0.801	924.6 ± 0.53	928.44 ± 0.53	932.04 ± 0.53	935.46 ± 0.54	938.75 ± 0.54	941.94 ± 0.54	945.09 ± 0.54	948.24 ± 0.55
293.15 K, x1 = 0.8977	929.03 ± 0.53	932.82 ± 0.54	936.35 ± 0.54	939.69 ± 0.54	942.92 ± 0.55	946.09 ± 0.55	949.28 ± 0.55	952.57 ± 0.55
293.15 K, x1 = 0.9283	930.22 ± 0.54	934.07 ± 0.54	937.67 ± 0.54	941.06 ± 0.55	944.32 ± 0.55	947.48 ± 0.55	950.62 ± 0.56	953.79 ± 0.56
293.15 K, x1 = 0.9578	931.42 ± 0.54	935.21 ± 0.54	938.78 ± 0.55	942.2 ± 0.55	945.49 ± 0.55	948.71 ± 0.56	951.88 ± 0.56	955.05 ± 0.56
303.15 K, x1 = 0.03	794.45 ± 0.51	798.97 ± 0.52	803.18 ± 0.53	807.13 ± 0.54	810.87 ± 0.55	814.43 ± 0.56	817.87 ± 0.58	821.22 ± 0.59
303.15 K, x1 = 0.0603	806.55 ± 0.51	811.05 ± 0.52	815.24 ± 0.53	819.16 ± 0.54	822.87 ± 0.55	826.4 ± 0.56	829.79 ± 0.57	833.08 ± 0.58
303.15 K, x1 = 0.1002	820.45 ± 0.51	824.89 ± 0.52	829.01 ± 0.52	832.87 ± 0.53	836.53 ± 0.54	840.03 ± 0.55	843.44 ± 0.56	846.8 ± 0.57
303.15 K, x1 = 0.2021	848.13 ± 0.51	852.39 ± 0.52	856.38 ± 0.52	860.15 ± 0.53	863.75 ± 0.54	867.22 ± 0.54	870.62 ± 0.55	873.98 ± 0.56
303.15 K, x1 = 0.3014	867.56 ± 0.51	871.73 ± 0.52	875.66 ± 0.52	879.39 ± 0.53	882.96 ± 0.53	886.41 ± 0.54	889.8 ± 0.54	893.16 ± 0.55
303.15 K, x1 = 0.4003	882.15 ± 0.51	886.21 ± 0.52	890.08 ± 0.52	893.8 ± 0.53	897.38 ± 0.53	900.86 ± 0.54	904.27 ± 0.54	907.64 ± 0.54
303.15 K, x1 = 0.4499	888.16 ± 0.51	892.11 ± 0.52	895.91 ± 0.52	899.59 ± 0.53	903.17 ± 0.53	906.65 ± 0.53	910.06 ± 0.54	913.41 ± 0.54
303.15 K, x1 = 0.5006	893.42 ± 0.51	897.42 ± 0.52	901.25 ± 0.52	904.92 ± 0.53	908.47 ± 0.53	911.94 ± 0.53	915.35 ± 0.54	918.74 ± 0.54
303.15 K, x1 = 0.5488	897.81 ± 0.52	901.82 ± 0.52	905.64 ± 0.52	909.31 ± 0.53	912.87 ± 0.53	916.34 ± 0.53	919.76 ± 0.54	923.18 ± 0.54
303.15 K, x1 = 0.5998	902.09 ± 0.52	906.13 ± 0.52	909.95 ± 0.52	913.6 ± 0.53	917.13 ± 0.53	920.59 ± 0.54	924.04 ± 0.54	927.53 ± 0.54
303.15 K, x1 = 0.703	909.18 ± 0.52	913.16 ± 0.52	916.96 ± 0.53	920.63 ± 0.53	924.18 ± 0.54	927.67 ± 0.54	931.11 ± 0.54	934.54 ± 0.55
303.15 K, x1 = 0.8012	914.76 ± 0.53	918.73 ± 0.53	922.51 ± 0.53	926.15 ± 0.54	929.69 ± 0.54	933.18 ± 0.55	936.65 ± 0.55	940.15 ± 0.55
303.15 K, x1 = 0.9025	919.51 ± 0.53	923.46 ± 0.54	927.24 ± 0.54	930.9 ± 0.55	934.45 ± 0.55	937.94 ± 0.55	941.4 ± 0.56	944.86 ± 0.56
303.15 K, x1 = 0.9288	920.51 ± 0.54	924.41 ± 0.54	928.15 ± 0.54	931.75 ± 0.55	935.26 ± 0.55	938.73 ± 0.56	942.19 ± 0.56	945.69 ± 0.56
303.15 K, x1 = 0.9594	921.58 ± 0.54	925.48 ± 0.54	929.24 ± 0.55	932.89 ± 0.55	936.45 ± 0.56	939.94 ± 0.56	943.39 ± 0.56	946.82 ± 0.57
313.15 K, x1 = 0.0301	785.54 ± 0.51	790.39 ± 0.52	794.86 ± 0.53	799.04 ± 0.54	802.99 ± 0.55	806.8 ± 0.57	810.55 ± 0.58	814.3 ± 0.6
313.15 K, x1 = 0.0604	797.46 ± 0.51	802.1 ± 0.52	806.49 ± 0.53	810.66 ± 0.54	814.64 ± 0.55	818.45 ± 0.56	822.15 ± 0.58	825.75 ± 0.59
313.15 K, x1 = 0.1009	811.29 ± 0.51	815.85 ± 0.52	820.14 ± 0.53	824.2 ± 0.54	828.09 ± 0.55	831.85 ± 0.56	835.51 ± 0.57	839.13 ± 0.58
313.15 K, x1 = 0.2013	838.49 ± 0.51	842.83 ± 0.52	846.98 ± 0.52	850.95 ± 0.53	854.76 ± 0.54	858.45 ± 0.55	862.02 ± 0.55	865.49 ± 0.56
313.15 K, x1 = 0.302	858.03 ± 0.51	862.37 ± 0.52	866.49 ± 0.52	870.43 ± 0.53	874.22 ± 0.53	877.88 ± 0.54	881.45 ± 0.55	884.95 ± 0.55
313.15 K, x1 = 0.401	872.35 ± 0.51	876.61 ± 0.52	880.69 ± 0.52	884.61 ± 0.53	888.4 ± 0.53	892.06 ± 0.54	895.62 ± 0.54	899.08 ± 0.55
313.15 K, x1 = 0.4507	878.39 ± 0.51	882.61 ± 0.52	886.65 ± 0.52	890.55 ± 0.53	894.31 ± 0.53	897.94 ± 0.54	901.47 ± 0.54	904.89 ± 0.55
313.15 K, x1 = 0.4984	883.4 ± 0.52	887.63 ± 0.52	891.71 ± 0.52	895.63 ± 0.53	899.4 ± 0.53	903.03 ± 0.54	906.52 ± 0.54	909.87 ± 0.55
313.15 K, x1 = 0.553	888.58 ± 0.52	892.77 ± 0.52	896.81 ± 0.52	900.7 ± 0.53	904.45 ± 0.53	908.07 ± 0.54	911.57 ± 0.54	914.96 ± 0.55
313.15 K, x1 = 0.6053	892.9 ± 0.52	897.11 ± 0.52	901.15 ± 0.53	905.03 ± 0.53	908.77 ± 0.53	912.39 ± 0.54	915.89 ± 0.54	919.29 ± 0.55
313.15 K, x1 = 0.7041	899.74 ± 0.52	903.88 ± 0.53	907.89 ± 0.53	911.79 ± 0.53	915.55 ± 0.54	919.19 ± 0.54	922.7 ± 0.55	926.09 ± 0.55
313.15 K, x1 = 0.8027	905.5 ± 0.53	909.63 ± 0.53	913.65 ± 0.54	917.54 ± 0.54	921.29 ± 0.54	924.91 ± 0.55	928.37 ± 0.55	931.68 ± 0.56
313.15 K, x1 = 0.9016	910.19 ± 0.53	914.28 ± 0.54	918.27 ± 0.54	922.15 ± 0.55	925.92 ± 0.55	929.56 ± 0.56	933.08 ± 0.56	936.46 ± 0.56
313.15 K, x1 = 0.9342	911.48 ± 0.54	915.6 ± 0.54	919.6 ± 0.55	923.48 ± 0.55	927.25 ± 0.56	930.89 ± 0.56	934.42 ± 0.56	937.83 ± 0.57
313.15 K, x1 = 0.9607	912.61 ± 0.54	916.71 ± 0.54	920.71 ± 0.55	924.61 ± 0.55	928.4 ± 0.56	932.04 ± 0.56	935.54 ± 0.57	938.88 ± 0.57
